Source: paper PMC9246773, “Assessing the Activity of Antimicrobial Peptides Against Common Marine Bacteria Located in Rotifer (Brachionus plicatilis) Cultures” (Probiotics and Antimicrobial Proteins, 2022)
No end group written: not given here.

What was measured:
[1] = test system: Vibrio alginolyticus; type: cell-based; conditions: 48 h
Description: (§1) A range of bacterial species with the potential to be transferred to developing fish larvae as pathogens or probiotics were selected for use in the study (Table 2). Bacterial isolates were stored at −80 °C and thawed, and 25 µL of the isolates was spread onto marine salt agar (MSA) media. All isolates were incubated at 25 °C for 18 h to reach mid-log growth phase. All isolates were sub-cultured and identified using mass spectrometry (MALDI-TOF) using the BioTyper and MBT 8468 library (Bruker Pty Ltd). The isolate Tenacibaculum discolor was plated on Anacker and Oradal’s marine (AOM) media, incubated for 48 h and identified using the aforementioned method. Bacterial isolates were suspended in sterile saline (0.75% NaCl w/v) to 0.5 McFarland standard. […] The bacterial isolates T. discolor and Pseudoalteromonas sp. require marine salts to grow and were not added to MHB (0‰). The isolate T. discolor requires low nutrients to grow, therefore, a separate MHB (25‰) was prepared at a diluted ratio of 1 part MHB and 7 parts artificial seawater (25‰).
(§2) The protocol was followed to determine the minimum inhibitory concentration (MIC) of the selected peptides. Two MIC assays were performed, firstly to determine whether each peptide precipitated in MHB and thereby required acetic acid adjustments (supplementary materials) and secondly, to determine the antimicrobial activity of each peptide in artificial seawater (25‰). Peptide stock solutions (1.3 mg mL^−1) were made by diluting the peptides in sterile deionised water. MHB was made with deionised water to reach a concentration of approaching 0‰ and artificial sea salts (Sigma-Aldrich® S9883) to reach a salinity of 25‰.
(§3) A broth microdilution protocol was followed to test whether the AMPs precipitated in MHB. The isolates T. discolor and Pseudoalteromonas were excluded from this assay because they required marine salts for growth. The peptides HHC10 and HHC36 previously required acetic acid adjustments according to [63] and were not trialled in this assay. To test if peptides required acetic acid, each peptide was diluted 1:2 in acetic acid (0.02% acetic acid w/v, containing 0.4% BSA) solution. In a 96-well polypropylene microtitre plates (Costar® 3879), 100 µL of this peptide stock was added to the first well for each bacterial isolate tested and serially diluted 2-fold with acetic acid (0.01% acetic acid w/v, containing 0.2% BSA). From each well, 10 µL of each peptide concentration was added to the corresponding wells of a new 96-well microtitre plate. From each of the bacterial suspensions in MHB (0‰), 90 µL was added to each well. […] From each of the bacterial suspensions in MHB (0‰), 50 µL was added to each well. All peptide concentrations ranged from 0.125 - 65µg mL^-1 and the bacterial suspension in each well was approximately 5 × 10^5 CFU mL^-1. Antimicrobial peptides that have an MIC value two or more dilutions higher in the assay with no acetic acid, compared to the assay with acetic acid, require acetic acid adjustments. The 96-well plates were incubated at 25 °C and read at 24 and 48 hours. The MIC was visually determined using a Sensititre™ Vizion™ Digital MIC Viewing System (Thermo Scientific™), and the lowest AMP concentration that had no bacterial growth was recorded as the MIC after 48 hours. Each bacterium was trialled in duplicate.

[2] = test system: Shewanella sp.; type: cell-based; conditions: 48 h
Description: as §1, §2, §3

[3] = test system: Escherichia coli (ATCC 25922); type: cell-based; conditions: ATCC 25922, 48 h
Description: as §1, §2, §3

[4] = test system: Vibrio rotiferianus; type: cell-based; conditions: 48 h
Description: as §1, §2, §3

[5] = test system: Vibrio harveyi; type: cell-based; conditions: 48 h
Description: as §1, §2, §3

[6] = test system: Vibrio harveyi (ATCC 35084); type: cell-based; conditions: ATCC 35084, 48 h
Description: as §1, §2, §3

[7] = test system: Vibrio scophthalmi; type: cell-based; conditions: 48 h
Description: as §1, §2, §3

[8] = test system: Vibrio alginolyticus; type: cell-based; conditions: 48 h; remark: listed apart in the source
Description: as §1, §2
(§4) Once the acetic acid requirement for each peptide was determined (Table 3), the antimicrobial activity of each peptide was tested at a salinity of 0‰ and 25‰ for all bacterial isolates. A stock solution for peptides that required acetic acid was prepared by a 1:2 dilution in acetic acid (0.02% acetic acid w/v, containing 0.4% BSA) solution. In a 96-well polypropylene microtitre plates (Costar® 3879), 100 µL of this peptide stock was added to the first well for each bacterial isolate tested and serially diluted twofold with acetic acid (0.01% acetic acid w/v, containing 0.2% BSA). From each well, 10 µL of each peptide concentration was added to the corresponding wells of a new 96-well microtitre plate. From each of the bacterial suspensions (0‰), 90 µL was added to each well. […] Twofold serial dilutions were made with MHB (0‰). From each of the bacterial suspensions (0‰), 50 µL was added to each well. The same method was followed for testing peptides in MHB at 25‰. All peptide concentrations ranged from 0.125 to 65 µg mL^−1, and the bacterial suspension in each well was approximately 5 × 10^5 CFU mL^−1. The different salinities were used to compare any differences in antimicrobial activity in 0‰ and 25‰ water. […] Each bacterium was trialled in duplicate.

[9] = test system: Shewanella sp.; type: cell-based; conditions: 48 h; remark: listed apart in the source
Description: as §1, §2, §4

[10] = test system: Escherichia coli (ATCC 25922); type: cell-based; conditions: ATCC 25922, 48 h; remark: listed apart in the source
Description: as §1, §2, §4

[11] = test system: Vibrio rotiferianus; type: cell-based; conditions: 48 h; remark: listed apart in the source
Description: as §1, §2, §4

[12] = test system: Tenacibaculum discolor; type: cell-based; conditions: 48 h
Description: as §1, §2, §4

[13] = test system: Vibrio harveyi; type: cell-based; conditions: 48 h; remark: listed apart in the source
Description: as §1, §2, §4

[14] = test system: Vibrio harveyi (ATCC 35084); type: cell-based; conditions: ATCC 35084, 48 h; remark: listed apart in the source
Description: as §1, §2, §4

[15] = test system: Pseudoalteromonas sp.; type: cell-based; conditions: 48 h
Description: as §1, §2, §4

[16] = test system: Vibrio scophthalmi; type: cell-based; conditions: 48 h; remark: listed apart in the source
Description: as §1, §2, §4

[17] = cited from earlier work
Description: A study by Haney determined the aggregation properties of the innate defence regulator (IDR) peptides 1018, 1002 and HH2 in different media such as salts and serum. These IDR peptides are synthetic analogues to natural host defence peptides (HDPs) found in organisms. […] Second-generation peptides are synthetically rearranged IDRs that are created to combat unwa ...

[18] = test system: bacterial isolates; type: cell-based; conditions: 18 h
Description: as §1, §2
Once the acetic acid requirement for each peptide was determined (Table 3), the antimicrobial activity of each peptide was tested at a salinity of 0‰ and 25‰ for all bacterial isolates. A stock solution for peptides that required acetic acid was prepared by a 1:2 dilution in acetic acid (0.02% acetic acid w/v, containing 0.4% BSA) solution. In a 96-well polypropylene microtitre plates (Costar® 3879), 100 µL of this peptide stock was added to the first well for each bacterial isolate tested and serially diluted twofold with acetic acid (0.01% acetic acid w/v, containing 0.2% BSA). From each well, 10 µL of each peptide concentration was added to the corresponding wells of a new 96-well microtitre plate. From each of the bacterial suspensions (0‰), 90 µL was added to each well. […] Twofold serial dilutions were made with MHB (0‰). From each of the bacterial suspensions (0‰), 50 µL was added to each well. The same method was followed for testing peptides in MHB at 25‰. All peptide concentrations ranged from 0.125 to 65 µg mL^−1, and the bacterial suspension in each well was approximately 5 × 10^5 CFU mL^−1. […]

Substance: KWRLLIRWRIQK [Peptide 2009]
- MIC V. alginolyticus, Acetic [1]: 1.02 µg/mL
- MIC V. alginolyticus, No acetic [1]: 1.02 µg/mL
- MIC Shewanella sp., Acetic [2]: 0.25 µg/mL
- MIC Shewanella sp., No acetic [2]: 1.02 µg/mL
- MIC E. coli ATCC 25922, Acetic [3]: 2.03 µg/mL
- MIC E. coli ATCC 25922, No acetic [3]: 2.03 µg/mL
- MIC V. rotiferianus, Acetic [4]: 0.13 µg/mL
- MIC V. rotiferianus, No acetic [4]: 1.02 µg/mL
- MIC V. harveyi, Acetic [5]: 1.02 µg/mL
- MIC V. harveyi, No acetic [5]: 1.02 µg/mL
- MIC V. harveyi ATCC 35084, Acetic [6]: 1.02 µg/mL
- MIC V. harveyi ATCC 35084, No acetic [6]: 1.02 µg/mL
- MIC V. scophthalmi, Acetic [7]: 0.13 µg/mL
- MIC V. scophthalmi, No acetic [7]: 0.51 µg/mL
- MIC V. alginolyticus, salinity 0‰ [8]: 1.02 µg/mL
- MIC V. alginolyticus, salinity 25‰ [8]: 65 µg/mL
- MIC Shewanella sp., salinity 0‰ [9]: 0.51 µg/mL
- MIC Shewanella sp., salinity 25‰ [9]: > 65 µg/mL
- MIC E. coli ATCC 25922, salinity 0‰ [10]: 2.03 µg/mL
- MIC E. coli ATCC 25922, salinity 25‰ [10]: > 65 µg/mL
- MIC V. rotiferianus, salinity 0‰ [11]: 0.13 µg/mL
- MIC V. rotiferianus, salinity 25‰ [11]: 32.5 µg/mL
- MIC T. discolor, salinity 25‰ [12]: > 65 µg/mL
- MIC V. harveyi, salinity 0‰ [13]: 1.02 µg/mL
- MIC V. harveyi, salinity 25‰ [13]: > 65 µg/mL
- MIC V. harveyi ATCC 35084, salinity 0‰ [14]: 1.02 µg/mL
- MIC V. harveyi ATCC 35084, salinity 25‰ [14]: > 65 µg/mL
- MIC Pseudoalteromonas sp., salinity 25‰ [15]: > 65 µg/mL
- MIC V. scophthalmi, salinity 0‰ [16]: < 0.13 µg/mL
- MIC V. scophthalmi, salinity 25‰ [16]: 32.5 µg/mL
- cytotoxicity [17]: caused cytotoxicity
- MIC against the probiotic strains, low salt [18]: 0.13 to 0.25 µg/mL

Substance: RRWIVKVRIRRR-NH2 [Peptide 2008]
- MIC V. alginolyticus, Acetic [1]: 0.51 µg/mL
- MIC V. alginolyticus, No acetic [1]: 1.02 µg/mL
- MIC Shewanella sp., Acetic [2]: 0.13 µg/mL
- MIC Shewanella sp., No acetic [2]: 0.51 µg/mL
- MIC E. coli ATCC 25922, Acetic [3]: 2.03 µg/mL
- MIC E. coli ATCC 25922, No acetic [3]: 4.06 µg/mL
- MIC V. rotiferianus, Acetic [4]: 0.25 µg/mL
- MIC V. rotiferianus, No acetic [4]: 1.02 µg/mL
- MIC V. harveyi, Acetic [5]: 1.02 µg/mL
- MIC V. harveyi, No acetic [5]: 1.02 µg/mL
- MIC V. harveyi ATCC 35084, Acetic [6]: 1.02 µg/mL
- MIC V. harveyi ATCC 35084, No acetic [6]: 1.02 µg/mL
- MIC V. scophthalmi, Acetic [7]: 0.13 µg/mL
- MIC V. scophthalmi, No acetic [7]: 0.25 µg/mL
- MIC V. alginolyticus, salinity 0‰ [8]: 0.13 µg/mL
- MIC V. alginolyticus, salinity 25‰ [8]: 65 µg/mL
- MIC Shewanella sp., salinity 0‰ [9]: 0.51 µg/mL
- MIC Shewanella sp., salinity 25‰ [9]: 65 µg/mL
- MIC E. coli ATCC 25922, salinity 0‰ [10]: 4.06 µg/mL
- MIC E. coli ATCC 25922, salinity 25‰ [10]: > 65 µg/mL
- MIC V. rotiferianus, salinity 0‰ [11]: 0.25 µg/mL
- MIC V. rotiferianus, salinity 25‰ [11]: 65 µg/mL
- MIC T. discolor, salinity 25‰ [12]: > 65 µg/mL
- MIC V. harveyi, salinity 0‰ [13]: 1.02 µg/mL
- MIC V. harveyi, salinity 25‰ [13]: > 65 µg/mL
- MIC V. harveyi ATCC 35084, salinity 0‰ [14]: 1.02 µg/mL
- MIC V. harveyi ATCC 35084, salinity 25‰ [14]: > 65 µg/mL
- MIC Pseudoalteromonas sp., salinity 25‰ [15]: 65 µg/mL
- MIC V. scophthalmi, salinity 0‰ [16]: 0.25 µg/mL
- MIC V. scophthalmi, salinity 25‰ [16]: 65 µg/mL
- cytotoxicity [17]: caused cytotoxicity
- MIC against the probiotic strains, low salt [18]: 0.13 to 0.25 µg/mL
